For one test, the target named is Vasopressin V2 receptor (Rattus norvegicus, UniProt Q00788).
For test [1], the target named is T1, Oxytocin receptor (Homo sapiens, UniProt P30559).
T1 sequence (P30559 whole entry): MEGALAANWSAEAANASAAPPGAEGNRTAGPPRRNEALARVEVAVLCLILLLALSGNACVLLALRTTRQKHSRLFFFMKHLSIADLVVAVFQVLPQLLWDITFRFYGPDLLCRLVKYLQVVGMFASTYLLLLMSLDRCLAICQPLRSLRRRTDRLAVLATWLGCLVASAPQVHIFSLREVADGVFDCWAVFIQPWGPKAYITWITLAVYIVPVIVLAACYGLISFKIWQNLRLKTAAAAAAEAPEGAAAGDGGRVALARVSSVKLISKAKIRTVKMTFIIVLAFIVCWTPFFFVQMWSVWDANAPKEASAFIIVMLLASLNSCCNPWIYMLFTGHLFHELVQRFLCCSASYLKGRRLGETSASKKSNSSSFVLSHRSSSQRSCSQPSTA

In test [2] the target is T2, Oxytocin receptor (Rattus norvegicus, UniProt P70536).
T2 sequence (P70536 whole entry): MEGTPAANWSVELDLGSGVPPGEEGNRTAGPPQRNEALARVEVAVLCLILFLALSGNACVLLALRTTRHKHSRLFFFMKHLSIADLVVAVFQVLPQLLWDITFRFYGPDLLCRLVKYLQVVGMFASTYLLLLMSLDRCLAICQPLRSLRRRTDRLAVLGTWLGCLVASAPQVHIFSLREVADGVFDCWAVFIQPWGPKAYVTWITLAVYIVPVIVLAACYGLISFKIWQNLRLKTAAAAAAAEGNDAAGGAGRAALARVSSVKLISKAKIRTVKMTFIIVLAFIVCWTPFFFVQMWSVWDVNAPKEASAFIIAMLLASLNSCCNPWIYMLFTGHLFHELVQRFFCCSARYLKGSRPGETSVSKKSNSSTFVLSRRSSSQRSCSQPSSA

Test [3] has as its target T3, Oxytocin receptor (Macaca mulatta, UniProt P56494).
T3 sequence (P56494 whole entry): T1 sequence (P30559 whole entry) with A4E, A11T, A14V, A16S, R27C, L51F, Q69H, V255M, R355N, A362T

Test [4] concerns the target T4, Rat vasopressin-neurophysin (Rattus norvegicus, UniProt Q6LEI5).
T4 sequence (Q6LEI5 whole entry): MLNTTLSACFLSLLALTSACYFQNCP

Ki data for 7 compounds are collected here from BindingDB's records for PubMed 1988661 (Merck Sharp & Dohme Research Laboratories, 1991).

Substitutions are numbered along the chain they refer to. Values joined by “and” are separate entries in the source; they are usually repeats but may differ in a detail not shown here. Equal entries are not always repeated. Square brackets hold non-standard residues; d marks the D form. Peptide text beside a SMILES is read from it. dPiz(1,6-dehydro) = O=C(O)[C@H]1CCC=NN1; Pip = O=C(O)[C@@H]1CCCCN1; dPip = O=C(O)[C@H]1CCCCN1

Chain of Vasopressin V2 receptor (Q00788 whole entry): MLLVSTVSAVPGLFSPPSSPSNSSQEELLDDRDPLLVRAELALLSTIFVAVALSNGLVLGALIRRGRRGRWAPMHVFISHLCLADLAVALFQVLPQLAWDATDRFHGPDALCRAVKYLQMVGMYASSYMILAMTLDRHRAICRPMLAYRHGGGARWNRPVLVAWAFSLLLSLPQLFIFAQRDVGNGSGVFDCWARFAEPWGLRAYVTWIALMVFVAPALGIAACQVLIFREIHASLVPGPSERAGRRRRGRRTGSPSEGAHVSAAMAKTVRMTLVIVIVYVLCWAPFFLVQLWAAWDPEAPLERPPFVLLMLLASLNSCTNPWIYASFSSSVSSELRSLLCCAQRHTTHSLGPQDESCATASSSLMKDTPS

Turning to `CC[C@H](C)[C@@H]1NC(=O)[C@@H](Cc2ccccc2)NC(=O)[C@@H]2CCCN2C(=O)[C@@H](Cc2ccccc2)N(C)C(=O)[C@H]2CCC=NN2C1=O` [J440.774A], the Ki (as a rule, the equilibrium dissociation constant of an inhibitor or competing ligand from its target) is 550 nM on Vasopressin V2 receptor; 21 nM on Oxytocin receptor [1]; 6 nM and 13 nM at Oxytocin receptor [2]; 33 nM on Oxytocin receptor [3]; 240 nM in test [4].

As for `CCC(C)C1NC(=O)[C@H](Cc2ccccc2)NC(=O)[C@H]2CCCN2C(=O)[C@H](Cc2ccccc2)N(C)C(=O)[C@@H]2CCC=NN2C(=O)[C@H]2CCC=NN2C1=O` (some centres undefined) [J325.338D], the inhibitory constant (Ki) at Oxytocin receptor [2] is 7.3 nM and 12 nM; at Oxytocin receptor [3], 12 nM.

Take `CC[C@H](C)[C@@H]1NC(=O)[C@@H](Cc2c[nH]c3ccccc23)NC(=O)[C@@H]2CCCN2C(=O)[C@@H](Cc2c[nH]cn2)NC(=O)[C@@H]2CCCCN2C(=O)[C@H]2CCCCN2C1=O` [CAS_196819] (cyclo(I[dPip][Pip][dH]P[dW])): the Ki at Vasopressin V2 receptor came out at 3100 nM; in test [4] it was 2200 nM.

In the case of `CCC(C)C(N)C(=O)N(C(=O)C1CCCN1C(=O)C(CC1=CC=CCC1(C(=O)N1C=CC=CC1)C(=O)N1CCNCC1)NC)C(C=O)Cc1c[nH]c2ccccc12` (centres undefined) [NSC_3083084], the Ki at Vasopressin V2 receptor was 240 nM; on Oxytocin receptor [1], 4.5 nM; on Oxytocin receptor [2], 3.4 nM and 4.2 nM; at Oxytocin receptor [3] it was 4.7 nM; in test [4] it was 9500 nM.

Take `CC[C@H](C)[C@@H]1NC(=O)[C@@H](Cc2c[nH]c3ccccc23)NC(=O)[C@@H]2CCCN2C(=O)[C@@H](Cc2cnc[nH]2)NC(=O)[C@@H]2CCCCN2C(=O)[C@H]2CCC=NN2C1=O` [J325.349J] (cyclo(I[dPiz(1,6-dehydro)][Pip][dH]P[dW])): the Ki at Vasopressin V2 receptor is 370 nM; at Oxytocin receptor [1] it was 1.3 nM; at Oxytocin receptor [2], 1.3 nM and 2.5 nM; at Oxytocin receptor [3], 2.3 nM; in test [4], 1200 nM.

Turning to `CCC(C)C(NC(=O)C(N)Cc1ccc2ccccc2c1)C(=O)C1(C=O)CCCN1C(=O)C(N)CC1=NC(C(=O)N2CCCCC2)(C(=O)N2CCCCC2)N=C1` (centres undefined) [NSC_188397], the inhibition constant (Ki) on Vasopressin V2 receptor is 810 nM and 320 nM; on Oxytocin receptor [1], 5.1 nM; on Oxytocin receptor [2] it was 0.7 nM and 0.8 nM; on Oxytocin receptor [3] it was 6.4 nM; in test [4] it was 760 nM.

Take `CCC(C)C1NC(=O)[C@H](Cc2ccccc2)NC(=O)[C@H]2CCCN2C(=O)[C@H](Cc2ccccc2)N(C)C(=O)[C@H]2CC(CN(C)C)CNN2C(=O)[C@H]2CCC=NN2C1=O` (some centres undefined) [J440.775J]: the Ki on Vasopressin V2 receptor is 1100 nM; at Oxytocin receptor [1], 4.1 nM; on Oxytocin receptor [2], 4.3 nM and 6.2 nM; on Oxytocin receptor [3], 8.1 nM; in test [4] it was 550 nM.
